The text below walks through data of patent US20260217708A1, “FUSED BENZAZEPINE DERIVATIVES FOR USE IN THE TREATMENT OF CANCER AND EPILEPSY” (UCB BIOPHARMA SRL, priority 2023, published 2026).

The target in assay [1] is T1, system Xc^− (Homo sapiens, UniProt Q9UPY5).
T1 sequence (Q9UPY5 1-501): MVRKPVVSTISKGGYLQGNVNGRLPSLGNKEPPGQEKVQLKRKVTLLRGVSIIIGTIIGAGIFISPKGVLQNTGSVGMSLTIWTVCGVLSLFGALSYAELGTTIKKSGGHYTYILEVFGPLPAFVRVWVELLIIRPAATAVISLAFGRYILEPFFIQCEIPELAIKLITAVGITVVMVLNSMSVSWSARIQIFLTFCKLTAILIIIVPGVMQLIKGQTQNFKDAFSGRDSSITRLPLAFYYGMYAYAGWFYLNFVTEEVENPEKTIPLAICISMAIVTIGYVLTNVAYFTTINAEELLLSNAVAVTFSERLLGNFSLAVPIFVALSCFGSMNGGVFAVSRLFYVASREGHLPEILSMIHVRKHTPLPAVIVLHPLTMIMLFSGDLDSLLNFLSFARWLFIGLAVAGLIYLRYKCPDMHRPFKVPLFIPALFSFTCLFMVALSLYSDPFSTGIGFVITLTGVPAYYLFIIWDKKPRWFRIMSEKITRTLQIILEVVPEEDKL
T1 sequence (P08195 1-529 partner): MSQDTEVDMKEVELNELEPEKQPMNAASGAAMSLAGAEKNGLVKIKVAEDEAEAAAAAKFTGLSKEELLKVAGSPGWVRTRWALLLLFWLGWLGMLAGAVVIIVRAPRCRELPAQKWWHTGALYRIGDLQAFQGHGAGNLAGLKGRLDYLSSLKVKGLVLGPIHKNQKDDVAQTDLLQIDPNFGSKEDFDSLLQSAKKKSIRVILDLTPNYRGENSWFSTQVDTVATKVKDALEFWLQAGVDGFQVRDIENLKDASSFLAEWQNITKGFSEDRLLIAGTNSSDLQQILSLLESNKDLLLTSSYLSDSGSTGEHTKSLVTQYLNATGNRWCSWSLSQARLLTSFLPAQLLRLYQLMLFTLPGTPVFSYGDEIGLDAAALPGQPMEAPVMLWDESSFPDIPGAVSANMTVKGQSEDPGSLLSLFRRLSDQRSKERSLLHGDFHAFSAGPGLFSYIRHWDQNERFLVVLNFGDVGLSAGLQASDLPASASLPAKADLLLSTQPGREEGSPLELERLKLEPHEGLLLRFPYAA
Put plainly: [^14C]L-Cystine uptake assay. On the set-up: endogenous in cells; host or cells: H4 cells. The assay is classed as cell-based. To be noted: H4 cells, sodium-free HEPES buffer, 0.5 μM L-[14C]Cystine and 4.5 μM L-Cystine, 1 hour at 37° C.; for IC50: read-out: pIC50 [^14C] L-Cystine uptake assay (converted). The method, boiled down:
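H4 cells at 5×10^4 cells/well in sodium-free HEPES buffer were preincubated 15 min with compounds (1% DMSO). Uptake of 0.5 μM [14C]L-cystine plus 4.5 μM unlabelled L-cystine ran 1 hour at 37° C on scintillating plates. IC50 was set between 1% DMSO and 50 μM Erastin controls and expressed as pIC50.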

The target of assay [2] is T1, system Xc^−. Put plainly: Cystine-induced glutamate release assay. The assay is classed as cell-based. On the set-up: endogenous in cells; host or cells: H4 cells. The note with it: H4 cells, sodium-free HEPES buffer, 50 μM L-Cystine, 2 hours, Amplex Red glutamate readout; for IC50: read-out: pIC50 Cystine-induced glutamate release assay (converted). The method, boiled down: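 H4 cells in sodium-free HEPES buffer (pH 7.4), 2 days after plating; glutamate release induced with 50 μM L-cystine plus compound (1% DMSO), 2 h at 37 °C. Supernatant glutamate measured by Amplex Red fluorescence; IC50/pIC50 derived between 1% DMSO and 50 μM erastin controls.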

Regarding `COc1nc(C)cc2c1-c1cccnc1CC(=O)N2CC(=O)Nc1ccc(C2CC2)cc1` [#80, N-(4-cyclopropylphen-yl)-2-(3-methoxy-5-methyl-9-oxo-4,8,12-triazatricyclo[9.4.0.0^2.7]pentadeca-1(11),2(7),3,5,12,14-hexaen-8-yl)-acetamide], the IC50 in assay [1] and in assay [2] was 15.8 to 39.8 nM throughout.

Consider `O=C(CN1C(=O)Cc2ccccc2-c2cnccc21)Nc1ccc(C(F)(F)F)cc1` [#17, 2-(6-oxo-7H-pyrido [4,3-d][3]benzazepin-5-yl)-N-[4-(trifluoro-methyl)phenyl] acetamide], for which the IC50 in assay [1] and in assay [2] was 100 to 501 nM each time.

Consider `COc1cc(F)c2c(c1)N(CC(=O)Nc1ccc(Cl)c(F)c1)C(=O)C(C)c1ncccc1-2` (single isomer, unassigned) [#316, N-(4-chloro-3-fluoro-phenyl)-2-[11-fluoro-9-methoxy-5-methyl-6-oxo-5H-pyrido[2,3-d][1]benzazepin-7-yl]acetamide], for which the IC50 in assay [1] and in assay [2] was 15.8 to 39.8 nM in each case.

Turning to `COc1nc(F)cc2c1-c1cccnc1CC(=O)N2CC(=O)Nc1ccc(C(F)(F)F)cc1` [#113, 2-(5-fluoro-3-methoxy-9-oxo-4,8,12-triazatricyclo[9.4.0.0^2,7]pentadeca-1(11),2,4,6,12,14-hexaen-8-yl)-N-[4-(trifluoromethyl)phenyl]acetamide], the IC50 was under 15.8 nM in assay [1] and 39.8 to 100 nM in assay [2].

Turning to `Cc1cc2c(c(Cl)n1)-c1ccccc1CC(=O)N2CC(=O)Nc1ccc(C(F)(F)F)cc1` (single isomer, unassigned) [#190, Atropisomer aS or aR of 2-(1-chloro-3-methyl-6-oxo-7H-pyrido[4,3-d][3]benzazepin-5-yl)-N-[4-(trifluoromethyl)phenyl]acetamide], in assay [1], the “pIC50 [^14C] L-Cystine uptake assay” value is recorded as “B (about 7.00 < pIC50 ≤ about 7.40)”. For the same molecule, in assay [2], the “pIC50 Cystine-induced glutamate release assay” value was “A (about 6.3 ≤ pIC50 ≤ about 7.00)”.

Regarding `Cc1cc2c(cn1)-c1cccc(F)c1CC(=O)N2CC(=O)Nc1ccc(C(F)(F)F)cc1` [#35, 2-(8-fluoro-3-methyl-6-oxo-7H-pyrido[4,3-d][3]benzazepin-5-yl)-N-[4-(trifluoro-methyl)phenyl] acetamide], the IC50 in assay [1] was 15.8 to 39.8 nM; in assay [2] it was 39.8 to 100 nM.

Consider `Cc1cc2c(c(F)n1)-c1cccnc1C(C)C(=O)N2CC(=O)Nc1ccc(C#N)c(F)c1` (centres unmarked) [#133, N-(4-cyano-3-fluoro-phenyl)-2-(3-fluoro-5,10-dimethyl-9-oxo-4,8,12-triazatricyclo[9.4.0.0^2,7]pentadeca-1(11),2(7),3,5,12,14-hexaen-8-yl)acetamide], for which the IC50 in assay [1] and in assay [2] was 39.8 to 100 nM throughout.

Regarding `Cc1cc2c(c(=O)n1C1CC1)-c1cccnc1C(C)C(=O)N2CC(=O)Nc1ccc(Cl)c(F)c1` (centres unmarked) [#179, N-(4-chloro-3-fluoro-phenyl)-2-(4-cyclopropyl-5,10-dimethyl-3,9-dioxo-4,8,12-triazatricyclo[9.4.0.0^2,7]pentadeca-1(11),2(7),5,12,14-pentaen-8-yl)acetamide], the IC50 in assay [1] is 15.8 to 39.8 nM; in assay [2] it was 39.8 to 100 nM.

Turning to `Cc1cc2c(c(F)n1)-c1ccnnc1C(C)C(=O)N2CC(=O)Nc1ccc(C(F)(F)F)cc1` (centres unmarked) [#172, 2-(3-fluoro-5,10-dimethyl-9-oxo-4,8,12,13-tetrazatricyclo[9.4.0.0^2,7]pentadeca-1(11),2(7),3,5,12,14-hexaen-8-yl)-N-[4-(trifluoromethyl)phenyl]acetamide], the IC50 in assay [1] and in assay [2] was 15.8 to 39.8 nM each time.

Regarding `CC1C(=O)N(CC(=O)Nc2ccc(C(F)F)cc2)c2cc(Cl)nc(Cl)c2-c2cccnc21` (centres unmarked) [#395, 2-(3,5-dichloro-10-methyl-9-oxo-4,8,12-triazatricyclo[9.4.0.0^2,7]pentadeca-1(11),2(7),3,5,12,14-hexaen-8-yl)-N-[4-(difluoromethyl)phenyl]acetamide], the IC50 in assay [1] is 39.8 to 100 nM; in assay [2] it was 15.8 to 39.8 nM.

As to `Cc1cc2c(cn1)-c1ccc(F)cc1C(C)C(=O)N2CC(=O)Nc1ccc(Cl)c(F)c1` (single isomer, unassigned) [#324, N-(4-chloro-3-fluoro-phenyl)-2-[9-fluoro-3,7-dimethyl-6-oxo-7H-pyrido[3,4-a][3]benzazepin-5-yl]acetamide], the IC50 in assay [1] and in assay [2] was under 15.8 nM in each case.

As for `Cc1cc2c(c(Cl)n1)-c1cccnc1C(C)C(=O)N2CC(=O)Nc1ccc(C(F)(F)F)cc1F` (single isomer, unassigned) [#225, Enantiomer (10S) or (10R) of N-[2-fluoro-4-(trifluoromethyl)phenyl]-2-[3-chloro-5,10-dimethyl-9-oxo-4,8,12-triazatricyclo[9.4.0.0^2,7]pentadeca-1(11),2(7),3,5,12,14-hexaen-8-yl]acetamide], the IC50 in assay [1] and in assay [2] was under 15.8 nM each time.

With `COc1nc(C)cc2c1-c1cnnn1CC(=O)N2CC(=O)Nc1ccc(C(F)(F)F)cc1` [#74, 2-(14-methoxy-12-methyl-8-oxo-4,5,6,9,13-pentazatricyclo[8.4.0.0^2,6]tetradeca-1(1),2,4,11,13-pentaen-9-yl)-N-[4-(trifluoromethyl)phenyl]acetamide], the IC50 in assay [1] and in assay [2] was 100 to 501 nM each time.

Consider `Cc1cc2c(c(=O)n1C)-c1cccnc1[C@@H](C)C(=O)N2CC(=O)Nc1ccc(C(F)F)cc1` (single isomer, unassigned) [#177, Enantiomer (10R) or (10S) of N-[4-(difluoromethyl)phenyl]-2-[4,5,10-trimethyl-3,9-dioxo-4,8,12-triazatricyclo[9.4.0.0^2,7]pentadeca-1(11),2(7),5,12,14-pentaen-8-yl]acetamide], for which the IC50 in assay [1] and in assay [2] was under 15.8 nM each time.

For `CC1C(=O)N(CC(=O)Nc2ccc(Cl)c(F)c2)c2ccn(C)c(=O)c2-c2ccccc21` (centres unmarked) [#351, N-(4-chloro-3-fluoro-phenyl)-2-(2,7-dimethyl-1,6-dioxo-7H-pyrido[4,3-d][3]benzazepin-5-yl)acetamide], the IC50 in assay [1] and in assay [2] was 39.8 to 100 nM throughout.

`O=C(CN1C(=O)Cc2ccccc2-c2cnc(N3CC(F)(F)C3)cc21)Nc1ccc(C(F)(F)F)cc1` [#47, 2-[3-(3,3-difluoroazetidin-1-v)-6-oxo-7H-pyrido[4,3-d][3]benzazepin-5-yl]-N-[4-(trifluoromethyl)phenyl]acetamide]: the IC50 in assay [1] is 15.8 to 39.8 nM; in assay [2], 39.8 to 100 nM.

For the molecule `Cc1cc2c(c(F)n1)-c1cccnc1C(C)C(=O)N2CC(=O)Nc1ccc(C)c(F)c1` (centres unmarked) [#128, 2-(3-fluoro-5,10-dimethyl-9-oxo-4,8,12-triazatricyclo[9.4.0.0^2,7]pentadeca-1(11),2(7),3,5,12,14-hexaen-8-yl)-N-(3-fluoro-4-methyl-phenyl)acetamide], the IC50 in assay [1] is under 15.8 nM; in assay [2], 15.8 to 39.8 nM.

For the molecule `Cc1cc2c(c(=O)n1C)-c1ccc(F)cc1C(C)C(=O)N2CC(=O)Nc1ccc(C(F)F)cc1` (centres unmarked) [#256, N-[4-(difluoromethyl)phenyl]-2-(9-fluoro-2,3,7-trimethyl-1,6-dioxo-7H-pyrido[4,3-d][3]benzazepin-5-yl)acetamide], the IC50 in assay [1] and in assay [2] was under 15.8 nM each time.

As for `Cc1cc2c(c(F)n1)-c1cccnc1[C@@H](C)C(=O)N2CC(=O)Nc1ccc2c(c1)OC(F)(F)O2` [#238, N-(2,2-difluoro-1,3-benzodioxol-5-yl)-2-[(10R)-3-fluoro-5,10-dimethyl-9-oxo-4,8,12-triazatricyclo[9.4.0.0^2,7]pentadeca-1(15),2,4,6,11,13-hexaen-8-yl]acetamide], the IC50 in assay [1] and in assay [2] was 39.8 to 100 nM in each case.
